Consider one molecule from US20250085201A1, “SUBSTITUTED QUADRUPOLAR FLUORESCENT DYES FOR LIVE CELL IMAGING” (Northwestern University, priority 2023, published 2025).

Data set [1] can be described thus: Absolute fluorescence quantum yield (integrating sphere). The note with it: 414 nm excitation. Type of data set: physicochemical.
The subject of data set [2] is MCF-7 breast cancer cells. The data set can be described thus: Cell growth / cytotoxicity experiments (phase contrast imaging, cell number). The note with it: MCF-7 cells. Type of data set: cell-based. How it is done: Small molecular dyes are known^86 to intercalate with the DNA on account of electrostatic and base-pair interactions. The presence of these interactions inhibits enzyme function, elevating the cytotoxicity in living cells. To test the cytotoxicity of dye 9·4Cl, (FIG. 6) a series of cell uptake and viability experiments using MCF-7 breast cancer cells were performed. […] Moreover, the cells were viable and treatments of up to 10 μM concentration are non-cytotoxic for up to 64 h post-treatment.
MCF-7 Cells were plated in a 96-well culture plate at a density of 0.01×10^6 cells per well in Dulbecco's modified eagle medium (DMEM) media with 10% fetal bovine serum (FBS) and 1% Penicillin-Streptomycin. Cells were cultured for 24 h then treated with the compounds at a range of concentrations from 0.1-50 μM. Upon treatment, cells were placed in a BioTek LionheartFX system, where they were imaged at 4× magnification every 3 h for 72 h under standard culture conditions (37° C., 5% CO2). Phase contrast images were processed and analyzed with BioTek Gen5 analysis software to identify cell number at each time point during the culture period.
MCF-7 Breast cancer cells were grown in standard Dulbecco's modified eagle medium (DMEM), which was supplemented with 10% Fetal Bovine Serum (FBS) and 1% Penicillin-Streptomycin (Corning). Cells were seeded into an 8-well imaging coverglass chamber (manufacturer-CellVis) or multiwell plate using phenol red free DMEM about 24 h prior to treatment. Dye 9·4Cl was resuspended in deionized H2O before being diluted to their final concentrations in the cell culture media. Cells were treated with the dye for 24 h prior to imaging. Uptake assays were carried out at concentrations from 1-50 μM, including a vehicle control (untreated). For the cell growth assays, cells were treated with the dye for 24 h at a range of concentrations from 0.1-50 μM.
For the cell cytotoxicity experiments, MCF-7 cells were plated in a 96-well culture plate at a density of 0.01×10^6 cells per well in DMEM media with 10% FBS and 1% Penicillin-Streptomycin. Cells were cultured for 24 h before being treated with the dye at a range of concentrations from 0.1-50 μM. After treatment, cells were placed in a BioTek LionheartFX system, where they were imaged at 4× magnification every 3 h for 72 h under standard (37° C., 5% CO2) culture conditions. Phase contrast images were processed and analyzed with BioTek Gen5 analysis software to identify cell numbers at each time point during the culture period.

A short description of data set [3]: Transient absorption (fsTA/nsTA) and time-resolved fluorescence spectroscopy. Type of data set: physicochemical. The settings on record: in H2O. An excerpt:
The excited-state properties of these quadrupolar dyes were investigated using transient absorption (TA) spectroscopy. The TA data of dyes 1-4 and 6 in MeCN with lex=350 nm (FIGS. 9-12 and 15) show similar spectra with the same general electronic evolution, though with differing kinetics. Following excitation, strong excited-state absorption features appear between ˜450-500 nm along with a strong single peak in the near-infrared region, both of which are associated with Sn←S1 absorptions. The visible bands redshift over the following ˜100 ps, while the near-infrared band peaks first blueshift in the initial ˜10 ps before settling. These near-infrared absorption bands are similar to those observed^59,60 in extended bipyridinium compounds. Following these shifts, the excited states decay via emission with lifetimes between 3-4 ns as confirmed by time-resolved fluorescence (TRF) spectroscopy. The spectral shape of the transient species is generally maintained throughout their lifetimes, implying that the dynamics in each dye all occur on a single electronic excited state (S1) prior to emission. The spectral shifts at early times may arise due to excited-state symmetry breaking^77-78 in the quadrupolar dyes, wherein fluctuations in the instantaneous electrostatic environment afforded by the solvent transiently favor wavefunction localization on one side of the symmetric molecule, creating an excited state with a large dipole moment that is associated with the Stokes shift observed^79 in the fluorescence spectra. This localization can lead to changes in the transient absorption spectra as a result of the breakdown^42,80 of the Laporte rule. The shifts at longer times may arise from solvent or structural relaxation of the dyes.
Steady-state and time-resolved emission spectra for dyes 1-6, 7·2PF6 and 9·4PF6 were acquired using a HORIBA Fluorolog-3 spectrofluorometer, equipped with a time-correlated single photon counting (TCSPC) module (diode laser excitation at λ=375 nm) and an integrating sphere, which was used for absolute photo-luminescence quantum yield determinations. Picosecond time-resolved fluorescence measurements were recorded using a commercial direct-diode-pumped 100 kHz amplifier (Spirit 1040-HE, Spectra-Physics), producing a fundamental beam of 1040 nm (350 fs, 12 W) which was used to pump a non-collinear optical parametric amplifier (Spirit-NOPA, SpectraPhysics) capable of delivering tunable, high-repetition-rate pulses with pulse widths as short as sub-20 fs. Dyes 1-6, 7·2PF6 and 9·4PF6 were excited with 350 nm, 2 nJ laser pulses. Fluorescence was detected using a Hamamatsu C4780 Streakscope as previously described in the literature. Samples were prepared in 2-mm quartz cuvettes. All data were acquired in the single-photon-counting mode using the Hamamatsu HPD-TA software. The temporal resolution was approximately 2% of the sweep window. Single wavelength kinetic analysis was performed using a nonlinear least-squares fit to a sum of exponentials convoluted with an instrument response function. Visible and near-infrared femtosecond and nanosecond transient absorption (fsTA and nsTA, respectively) spectroscopies were performed following descriptions already recorded in the literature. The 330 nm, ˜100 fs pump pulses were generated at 1 μJ per pulse using a commercial collinear optical parametric amplifier (TOPAS-Prime, Light-Conversion, Ltd.); 414-nm pump pulses were obtained by second-harmonic generation of the 828 nm fundamental. The pump polarization was randomized using a commercial depolarizer (DPU-25-A, Thorlabs, Inc.) to eliminate any orientational dynamics resulting from the experiment. Spectra were collected on commercial spectrometers (customized Ultrafast Systems Helios and EOS spectrometers, for fsTA and nsTA, respectively) for each time window. All samples were stirred to avoid localized heating or degradation effects. The optical density was maintained at 0.6 for all samples. […]

Take `COc1cc2c(OC)cc1-c1cc[n+](cc1)Cc1ccc(cc1)C[n+]1ccc(cc1)-c1cc(OC)c(cc1OC)-c1cc[n+](cc1)Cc1ccc(cc1)C[n+]1ccc-2cc1` [9·4Cl]: the “ΦF in the solid-state (powder)” value in data set [1] came to 0.016±0.005. The cell growth entry in data set [2] (concentrations of 5 μM and above) is on record as “decreases gradually”. Further, in data set [2] (higher concentrations (range tested up to 50 μM)), the cell death entry is “minimal cell death is observed”. In addition, the “growth of the cells versus non-treated control cells” value in data set [2] (low concentrations (up to 1 μM)) is reported as “comparable with that of non-treated control cells”. Further, the cytotoxicity entry in data set [2] (treatments of up to 10 μM, up to 64 h post-treatment) is “non-cytotoxic”. Moreover, in data set [3], the “rate constant k2 from TA data” value is “(188 ± 4 ps)^−1 (ps)^−1” and the “rate constant k3 from TA data” value was “(3.45 ± 0.01 ns)^−1 (ns)^−1”. Further, the “radiative decay rate constant kR” value in data set [3] (kR = kobsΦF) is reported as “(17.9 ± 0.6 ns)^−1 (ns)^−1”.
